Reference: patent publication US12226409B2, “Treatment of hepatocellular carcinoma” (Eisai R&D Management Co., Ltd., priority 2017, dated 2025)

Assays:
[1] = tested on: unresectable HCC; assay: Open-label phase 3 noninferiority study, efficacy (tumor assessment by mRECIST); format: in vivo, human
From the text: The primary endpoint was overall survival.
Patients who were eligible for enrollment had unresectable HCC with diagnosis confirmed histologically or cytologically or with diagnosis confirmed clinically in accordance with the American Association for the Study of Liver Diseases criteria. Included patients also had ≥1 measureable target lesion, based on modified Response Evaluation Criteria in Solid Tumors (Lencioni 2010); Barcelona Clinic Liver Cancer stage B or C categorization (Bruix Hepatology 2011); Child-Pugh class A; and Eastern Cooperative Oncology Group performance status ≤1. All eligible patients had controlled blood pressure (≤150/90 mm Hg), and adequate organ function. Patients with ≥50% liver occupation, clear bile duct invasion, or portal vein invasion at the main portal vein were excluded. Patients also were excluded if that had received prior systemic therapy for HCC.
Tumors were evaluated in accordance with mRECIST (Lencioni R., Semin Liver Dis., 30(1):52-60, 2010); RECIST 1.1 was applied for nonhepatic lesions (Eisenhauer, Eur J Cancer, 45(2):228-47, 2009). The liver was examined with computed tomography or magnetic resonance imaging was performed using a triphasic scanning technique. Assessments were performed every 8 weeks until disease progression. Quality of life questionnaires were administered at baseline, on day 1 of each subsequent treatment cycle, and at the off-treatment visit.
The primary endpoint of overall survival was first tested for noninferiority then for superiority. The required number of events for the primary analysis was 700 deaths, based on the fill analysis set. The HR and its 95% confidence interval (CI) were estimated from a Cox proportional hazard model with treatment group as a factor and with the analysis stratified according to the same factors applied for randomization.
A fixed-sequence procedure was followed to control the overall type I error rate of analyses for both the primary and secondary efficacy endpoints at α=0.05 (2-sided). After noninferiority was declared, secondary efficacy endpoints were tested. Differences in progression-free survival and time to progression were evaluated using a stratified log-rank test with randomization stratification factors, with the associated HR and its 95% CI. A difference in the objective response rate was evaluated using the Cochran-Mantel-Haenszel chi-square test with randomized stratification factors as strata, with associated odds ratio and its 95% CI. To assess futility, 2 interim analyses (at 30% and 70% of the target number of events) were performed using Bayesian predictive probability in a noninferiority design by the independent data monitoring committee.

[2] = Phase 1 study of lenvatinib in HCC, plasma concentration; format: in vivo, human; settings: HCC patients 12 mg per day vs solid tumor patients 25 mg per day
[3] = tested on: lenvatinib-treated subjects; assay: Clinical studies with lenvatinib, posterior reversible encephalopathy syndrome; settings: human, in vivo
From the text: Mild to severe hypertension also could be present. A magnetic resonance imaging (MRI) was necessary to confirm the diagnosis of PRES. In subjects with signs or symptoms of PRES, appropriate measures were to be taken to control blood pressure, and instructions in Table 6 were followed.

[4] = molecular target: CYP2C19 (Homo sapiens, UniProt P33261); assay: In vitro CYP inhibition; format: in vitro ADME
[5] = molecular target: CYP2D6 (Homo sapiens, UniProt P10635); assay: In vitro CYP inhibition; format: in vitro ADME
[6] = tested on: CYP3A; assay: In vitro CYP inhibition; format: in vitro ADME

Chain of CYP2C19 (P33261 whole entry): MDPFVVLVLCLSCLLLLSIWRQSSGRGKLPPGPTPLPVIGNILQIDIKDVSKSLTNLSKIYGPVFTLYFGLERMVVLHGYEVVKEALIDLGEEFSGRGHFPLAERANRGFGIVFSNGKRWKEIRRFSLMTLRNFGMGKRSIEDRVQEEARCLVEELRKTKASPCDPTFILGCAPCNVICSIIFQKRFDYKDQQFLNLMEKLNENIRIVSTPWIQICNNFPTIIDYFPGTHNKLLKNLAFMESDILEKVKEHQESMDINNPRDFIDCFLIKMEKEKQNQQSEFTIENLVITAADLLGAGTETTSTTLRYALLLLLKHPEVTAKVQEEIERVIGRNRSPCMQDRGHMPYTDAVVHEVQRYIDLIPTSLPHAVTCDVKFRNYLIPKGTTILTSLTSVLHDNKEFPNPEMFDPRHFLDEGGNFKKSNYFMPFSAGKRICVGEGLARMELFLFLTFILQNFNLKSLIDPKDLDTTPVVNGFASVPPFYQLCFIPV
Chain of CYP2D6 (P10635 whole entry): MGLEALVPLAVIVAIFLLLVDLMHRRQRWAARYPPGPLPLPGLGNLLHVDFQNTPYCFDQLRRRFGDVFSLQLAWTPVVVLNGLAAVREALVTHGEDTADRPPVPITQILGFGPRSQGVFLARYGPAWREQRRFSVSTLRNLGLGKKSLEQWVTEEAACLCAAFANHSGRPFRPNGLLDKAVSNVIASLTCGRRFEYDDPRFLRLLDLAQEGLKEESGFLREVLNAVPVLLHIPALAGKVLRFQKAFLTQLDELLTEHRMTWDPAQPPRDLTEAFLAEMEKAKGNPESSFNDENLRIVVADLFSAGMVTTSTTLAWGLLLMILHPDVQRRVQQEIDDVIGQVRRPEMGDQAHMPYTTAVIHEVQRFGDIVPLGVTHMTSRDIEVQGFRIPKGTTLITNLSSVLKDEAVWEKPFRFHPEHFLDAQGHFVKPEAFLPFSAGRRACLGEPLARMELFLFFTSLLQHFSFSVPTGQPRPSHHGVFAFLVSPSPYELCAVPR

## COc1cc2nccc(Oc3ccc(NC(=O)NC4CC4)c(Cl)c3)c2cc1C(N)=O [Lenvatinib, 4-(3-chloro-4(cyclopropylaminocarbonyl)aminophenoxy)-7-methoxy-6-quinolinecarboxamide]
[1]; Full Analysis Set
  Primary reason for discontinuation of treatment: Disease Progression: 311 (65.1) n (%)
[1]; in vivo
  Durable stable disease lasting ≥23 wk: 167 no.
  Median overall survival: 13.6 mo
[1]; mRECIST
  Median progression-free survival: 7.4 mo
  Median time to progression: 8.9 mo
[2]
  lenvatinib plasma concentration at 24 hours: similar
[3]
  events of posterior reversible encephalopathy syndrome (PRES): less than 1%
[4]
  inhibition of CYP2C19: inhibits
[5]
  inhibition of CYP2D6: inhibits
[6]
  inhibition of CYP3A: inhibits
